Measurements as given in ChEMBL document CHEMBL1131805, “Synthesis and biological evaluation of analogs of the marine toxin polycavernoside A” (Bioorg Med Chem Lett, 1999).

Columns and labels:
Format in all cases: ADME
[1] = Minimal lethal dose in mice causing gradual progressive onset of severe scratching of face and body, spasms, paralysis (30 min after injection), severe eye damage, and death occurring within 24 h; range: 0.38-0.77; settings: mouse, in vivo
[2] = Minimal lethal dose in mice causing gradual progressive onset of severe scratching of face and body, spasms, paralysis, severe eye damage, and death; range: 1.5-3.1; settings: mouse, in vivo
[3] = Minimal lethal dose in mice showing no adverse symptoms seen; settings: mouse, in vivo
[4] = Minimal lethal dose in mice causing no scratching or eye damage, but frenetic jumping, severe spasms, and ultimately paralysis; if death did not occur within 30 min, total recovery was noted; range: 1.5-3.1; settings: mouse, in vivo, 0.5 h
[5] = Minimal lethal dose in mice causing gradual progressive onset of severe scratching of face and body, spasms, paralysis, severe eye damage, and death; range: 0.2-0.4; settings: mouse, in vivo

Structure (SMILES): CO[C@@H]1[C@H](O[C@@H]2[C@@H](OC)[C@H](O[C@H]3C[C@H]4CC(=O)[C@@]5(O)O[C@H](C[C@H]5C)C(C)(C)[C@@H](/C=C/C#C/C=C/C(C)C)OC(=O)C[C@H](O4)[C@@H]3C)OC[C@H]2OC)O[C@@H](C)[C@@H](O)[C@@H]1OC
- MLD [1]: 0.38 mg/kg

Structure (SMILES): CO[C@@H]1[C@H](O[C@@H]2[C@@H](OC)[C@H](O[C@H]3C[C@H]4CC(=O)[C@@]5(O)O[C@H](C[C@H]5C)C(C)(C)[C@@H](/C=C/C=C/C(C)C)OC(=O)C[C@H](O4)[C@@H]3C)OC[C@H]2OC)O[C@@H](C)[C@@H](O)[C@@H]1OC
- MLD [2]: 3.1 mg/kg

Structure (SMILES): COC1C(O)C(C)OC(O[C@H]2C(OC)COC(O[C@H]3C[C@H]4CC(=O)[C@@]5(O)O[C@H](C[C@H]5C)C(C)(C)[C@@H](/C=C/c5ccccc5)OC(=O)C[C@H](O4)[C@@H]3C)[C@@H]2OC)[C@H]1OC (stereo partly drawn)
- MLD [3]: > 13 mg/kg

Structure (SMILES): CC(C)/C=C/C=C/C=C/[C@H]1OC(=O)C[C@@H]2O[C@H](CC(=O)[C@@]3(O)O[C@H](C[C@H]3C)C1(C)C)C[C@H](O)[C@H]2C
- MLD [4]: 1.5 mg/kg

Structure (SMILES): CO[C@@H]1[C@H](O[C@@H]2[C@@H](OC)[C@H](O[C@H]3C[C@H]4CC(=O)[C@@]5(O)O[C@H](C[C@H]5C)C(C)(C)[C@@H](/C=C/C=C/C5CCCCC5)OC(=O)C[C@H](O4)[C@@H]3C)OC[C@H]2OC)O[C@@H](C)[C@@H](O)[C@@H]1OC
- MLD [3]: > 13 mg/kg

Structure (SMILES): C[C@H]1[C@@H]2CC(=O)O[C@H](/C=C/I)C(C)(C)[C@H]3C[C@@H](C)[C@](O)(O3)C(=O)C[C@H](C[C@@H]1O)O2
- MLD [3]: > 13 mg/kg

Structure (SMILES): CO[C@@H]1[C@H](O[C@@H]2[C@@H](OC)[C@H](O[C@H]3C[C@H]4CC(=O)[C@@]5(O)O[C@H](C[C@H]5C)C(C)(C)[C@@H](/C=C/C=C/C=C/C(C)C)OC(=O)C[C@H](O4)[C@@H]3C)OC[C@H]2OC)O[C@@H](C)[C@@H](O)[C@@H]1OC [polycavemoside A]
- MLD [5]: 0.2 mg/kg

Structure (SMILES): CO[C@@H]1[C@H](OC)[C@H](O[C@@H]2[C@@H](OC)[C@H](O[C@H]3C[C@H]4CC(=O)[C@@]5(O)O[C@H](C[C@H]5C)C(C)(C)[C@@H](/C=C/C=C/C(C)C)OC(=O)C[C@H](O4)[C@@H]3C)OC[C@H]2OC(C)=O)O[C@@H](C)[C@H]1OC [polycavernoside B]
- MLD [5]: 0.2 mg/kg
